Measurements published in paper PMC10584170, “Machine learning-based phenotypic imaging to characterise the targetable biology of Plasmodium falciparum male gametocytes for the development of transmission-blocking antimalarials” (PLOS Pathogens, 2023).
Like-named read-outs stand apart in the source and are kept apart here.

Legend:
[1] = system: P. falciparum male gametocytes; assay: P. falciparum Dual Gamete Formation Assay (PfDGFA), male readout (exflagellation); type: cell-based, Plasmodium falciparum NF54; conditions: for IC50: this study, read-out: Pf DGFA IC50 MALE
Summary of the method: (§1)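 NF54 mature gametocytes (d14), cpd 24 h 37°C hypoxic gas; trigger: xanthurenic acid ookinete medium + Cy3 anti-Pfs25, 4°C 4 min → 28°C 4 min. Male: exflagellation centres, brightfield x6. Female: Pfs25+ gametes, fluorescence, +24 h 28°C dark.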

[2] = system: P. falciparum female gametocytes; assay: P. falciparum Dual Gamete Formation Assay (PfDGFA), female readout (Pfs25-positive female gametes); type: cell-based, Plasmodium falciparum NF54; conditions: for IC50: this study, read-out: Pf DGFA IC50 FEM
Summary of the method: as §1

[3] = system: P. falciparum male gametocytes; assay: PhIDDLI timecourse assay, compound added at timepoints after triggering male gametogenesis; type: cell-based, Plasmodium falciparum NF54; conditions: for cells with late phenotype / cells forming exflagellation centres: compound added at 10 min post-induction; for cells forming exflagellation centres: DMSO control 17.2%; for arrest of gametogenesis: compound added concurrent with triggering gametogenesis
[4] = system: P. falciparum female gametocytes; assay: P. falciparum Female Gametocyte Activation Assay (PfFGAA); type: cell-based, Plasmodium falciparum; conditions: Mean TOX HepG2 over FGAA IC50; GREEN = >10-fold; RED = <10-fold
[5] = system: P. falciparum female gametocytes; parameters: method as in Miguel-Blanco et al 2017; conditions: ref Miguel-Blanco et al 2017; read-out: Pf female gametogenesis FGAA IC50; cited from earlier work
HepG2 cells [6] = conditions: cited from earlier work; for FGAA TOX50 HepG2: HepG2 value reported with the FGAA screen, ref Miguel-Blanco et al 2017; for ODA TOX50 HepG2: HepG2 value reported with the ODA screen, ref Delves et al 2019
HepG2 cells [7] = assay: HepG2 cytotoxicity counter-screen; conditions: for Mean TOX: mean of the HepG2 TOX50 values

Structure (SMILES)	Cytotox ratio Pf Male [1]	IC50 [1]	Cytotox ratio Pf Female [2]	IC50 [2]	cells with late phenotype [3]	cells forming exflagellation centres [3]	arrest of gametogenesis [3]	Cytotox ratio Pf FGAA [4]	IC50 [5]	FGAA TOX50 HepG2 (HepG2 cells [6])	Mean TOX (HepG2 cells [7])	ODA TOX50 HepG2 (HepG2 cells [6])	DGFA Tox50 HepG2 (HepG2 cells [7]; HepG2 value reported with the DGFA screen)
CC(C)(CNC(=O)[C@H]1CCCCN1)c1nc(-c2ccc(Cl)c(O)c2)c(-c2ccncc2)[nH]1.Cl [TC04]	24.9	1630 nM	39.8	1020 nM	86.3%	0.4%	near total arrest	76.7	530 nM	28.96 µM	40.64 µM		
CC(C)(CN)c1nc(-c2ccc(Br)c(O)c2)c(-c2ccncc2)[nH]1.Cl [TC13]	43.5	1480 nM	112.9	570 nM	83.3%	2.7%	near total arrest	76.6	840 nM	45.82 µM	64.38 µM	47.315 µM	100 µM
Cl.NCC1(c2nc(-c3ccc(Cl)c(O)c3)c(-c3ccncc3)[nH]2)CCCCC1 [TC41]	26.9	850 nM	53.2	430 nM	84.9%	1.1%	near total arrest	108.8	210 nM	11.9 µM	22.85 µM	46.774 µM	
